Two molecules from patent US20210246157A1, “CAMPTOTHECIN DERIVATIVES AND PREPARATION METHODS AND APPLICATIONS THEREOF” (priority 2018, published 2021) can be followed below.

What all share (experiment): Cytotoxicity test (MTT, 72 h)
One test concerns SW-480. The note with it: Homo sapiens, SW480, 72 h, read-out: 50% Inhibiting Concentration value (IC50).
The test system of the next test is HT-29. Particulars: Homo sapiens, HT-29, 72 h, read-out: 50% Inhibiting Concentration value (IC50).
For a further test, the system named is A549. The note with it: Homo sapiens, A549, 72 h, read-out: 50% Inhibiting Concentration value (IC50).
The test system of the next test is K562. Particulars: Homo sapiens, K562, 72 h, read-out: 50% Inhibiting Concentration value (IC50).
The next test has as its system PC3. The note with it: Homo sapiens, PC-3, 72 h, read-out: 50% Inhibiting Concentration value (IC50).
The next test deals with MDA-MB-231. The note with it: Homo sapiens, MDA-MB-231, 72 h, read-out: 50% Inhibiting Concentration value (IC50).

Experimental for A549: (§1) In order to investigate the antitumor activities of the compounds, a variety of tumor cell lines for test are selected. Cells at logarithmic growth period are inoculated in a 96-well plate overnight, then drugs with a certain gradient concentrations are added, and incubation is carried out in a cell culture chamber (5% CO2, 37° C.) for 72 h.
Experimental for HT-29: (§2) Cells at logarithmic growth period are inoculated in a 96-well plate overnight, then drugs with a certain gradient concentrations are added, and incubation is carried out in a cell culture chamber (5% CO2, 37° C.) for 72 h.
Experimental for K562: as §1
Experimental for MDA-MB-231: as §1
Experimental for PC3: as §1
Experimental for SW-480: as §2

As to `CCc1c2c(nc3ccc(OC(=O)OCCOCCOCCOCc4cn(CCO[C@H]5O[C@@H](CO)[C@H](O)[C@@H](O)[C@@H]5O)nn4)cc13)-c1cc3c(c(=O)n1C2)COC(=O)[C@]3(O)CC` [Compound 58], the IC50 in the test with SW-480 came out at 254 nM; with HT-29, 5.25 µM; in the test on A549, 3040 nM; in the test with K562, 1660 nM; in the test with PC3, 2530 nM; in the test on MDA-MB-231, 521 nM.
On to `CCc1c2c(nc3ccc(OC(=O)NCCOCc4cn(CCO[C@H]5O[C@@H](CO)[C@H](O)[C@@H](O)[C@@H]5O)nn4)cc13)-c1cc3c(c(=O)n1C2)COC(=O)[C@]3(O)CC` [Compound 67], for which the IC50 came out at 251 nM with SW-480; 5.19 µM in the test on HT-29; 2420 nM in the test on A549; 196 nM with K562; 2020 nM in the test with PC3; 876 nM in the test on MDA-MB-231.
